Laboratory results published in patent publication US9204654B2, “Synergistic combination of a zoxamide compound and zinc pyrithione for dry film protection” (Rohm and Haas Company, priority 2012, dated 2015).

Key:
Chlorella sp. ATCC 7516 = assay: Algal efficacy test of dry paint film (modified ASTM 5589, 6-well plates); type: cell-based; conditions: 3 weeks; for Total conc: total biocide concentration in paint taken as minimum inhibitory concentration, pass level ≧75% inhibition, for zoxamide the maximum concentration tested, pass not reached
Procedure: (§1) Slurries containing 33% antimicrobial active ingredients (Zoxamide and ZnPT) were post added to a white, acrylic/silicone based outdoor paint free of biocides to give a total active ingredient concentration of 10000 and 1000 ppm respectively. These paints were then diluted with an antimicrobial free acrylic/silicone based paint and mixed to prepare targeted concentrations of antimicrobial compounds for the testing. The total biocides concentrations tested were 125, 250, 500, 1000, 2000 and 5000 ppm. After biocides addition or dilution, the paints were mixed 90 seconds with the horse power shaker (AXEL 75M3372/Agitateur SO-10MI) until uniformity was achieved. Paints containing different antimicrobial compounds at the same levels were mixed together in order to obtain the desired ratio of antimicrobial compounds. After one day, the paints were applied to Schleicher & Schuell filter paper at 280 μm wft and dried for 3 days at room temperature avoiding direct exposure to sunlight. Square discs (1.6 cm×1.6 cm) were cut out from each panel and were used as the substrate for algal efficacy tests. This sample size allowed for an agar border when the sample disc was placed into the well of the test plate.
(§2) Algal efficacy was tested according to modified ASTM 5589 which is a standard accelerated test method for determining resistance of various coatings (including paints) to algal defacement. To accommodate for high-throughput screening, this method was scaled down from petri dishes to 6-well plates. Bold Modified Basal Freshwater Nutrient Solution was used as growth medium. A single coated filter paper coupon was placed with a pair of sterile forceps at the center of the agar plug (on top) with the painted surface facing upwards. Algal inoculums were prepared by mixing equal concentrations (1×10^6 cfu/ml) and equal volumes of exponentially growing algae cultures.
(§3) Each well that contains a tested coupon was inoculated with 1750 μl of algal suspensions (1×10^6 cfu/ml) making sure that the whole surface (paint film as well as the agar surrounding it) was evenly covered. The plates were incubated at room temp (21° C.-25° C.) with cyclic exposure to light and dark phases, for a period of three weeks.
(§4) At the end of the three week incubation period, the samples were scored for percent inhibition regarding visible algal growth compared to the blank sample (0% inhibition).
(§5) The SI is calculated based on F. C.
(§6) SI value of <1 in the formula indicates a synergism of the blended biocides exists.
(§7) The minimal targeted inhibition was set at 75%, meaning a coupon with at least 75% algal growth inhibition was considered as a pass.

[1] = tested on: Stichococcus bacillaris SAG 379-1a CCAP 379/1a; assay: as above; type: cell-based; conditions: 3 weeks; for Total conc: total biocide concentration in paint taken as minimum inhibitory concentration, pass level ≧75% inhibition, for zoxamide the maximum concentration tested, pass not reached
Procedure: as §1, §2, §3, §4, §5, §6, §7

[2] = total conc 500 ppm in paint, visible algal growth vs blank

[O-][n+]1ccccc1[S][Zn][S]c1cccc[n+]1[O-] [ZnPT, bis(2-pyridylthio)zinc 1,1′-dioxide]
Total conc (Chlorella sp. ATCC 7516): 500 ppm
% inhibition (Chlorella sp. ATCC 7516; [2]): 90%
Total conc [1]: 500 ppm
% inhibition [1, 2]: 85%

CCC(C)(NC(=O)c1cc(Cl)c(C)c(Cl)c1)C(=O)CCl (centres unmarked) [Zoxamide, 3,5-Dichloro-N-(3-chloro-1-ethyl-1-methyl-2-oxopropyl)-4-methylbenzamide]
inhibition at 5000 ppm (Chlorella sp. ATCC 7516; 504 h, total conc 5000 ppm in paint, visible algal growth vs blank): 60%
Total conc (Chlorella sp. ATCC 7516): 5000 ppm
inhibition at 5000 ppm ([1]; Stichococcus bacillaris, 504 h, total conc 5000 ppm in paint, visible algal growth vs blank): 45%
Total conc [1]: 5000 ppm
